# Square brackets hold non-standard residues; d marks the D form. Peptide text beside a SMILES is read from it. dGly(5-dibenzosuberyl) = N[C@@H](C(=O)O)C1c2ccccc2CCc2ccccc21
# Biological target: T1, Endothelin-1 receptor (Sus scrofa) (UniProt Q29010)
# T1 sequence (whole entry): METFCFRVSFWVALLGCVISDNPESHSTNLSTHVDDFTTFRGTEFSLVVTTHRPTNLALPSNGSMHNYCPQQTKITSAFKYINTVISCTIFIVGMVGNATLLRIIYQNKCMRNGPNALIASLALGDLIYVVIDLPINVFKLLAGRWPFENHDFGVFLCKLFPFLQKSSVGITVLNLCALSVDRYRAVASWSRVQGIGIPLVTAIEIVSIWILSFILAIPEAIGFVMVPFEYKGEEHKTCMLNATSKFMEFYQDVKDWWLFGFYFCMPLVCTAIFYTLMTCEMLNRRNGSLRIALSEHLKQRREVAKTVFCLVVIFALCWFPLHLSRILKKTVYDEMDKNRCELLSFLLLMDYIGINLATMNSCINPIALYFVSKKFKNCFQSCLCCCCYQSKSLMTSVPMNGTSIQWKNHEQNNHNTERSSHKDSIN
# Assay: Inhibition of endothelin (ET-A) binding to porcine heart membranes
# Parameters: concentration or dose not given beside the values
# Settings: Membrane, concentration not given here
row,inhibition [%],SMILES
1,9,CC[C@H](C)[C@H](NC(=O)[C@H](CC(C)C)NC(=O)[C@H](CC(=O)O)NC(=O)[C@H](CC(C)C)NC(=O)[C@H](NC(C)=O)C1c2ccccc2CCc2ccccc21)C(=O)N[C@@H](Cc1c[nH]c2ccccc12)C(=O)O
2,0,CC[C@H](C)[C@H](NC(=O)[C@@H]1CCCN1C(=O)[C@H](CC(=O)O)NC(=O)[C@H](CC(C)C)NC(=O)[C@H](NC(C)=O)C1c2ccccc2CCc2ccccc21)C(=O)N[C@@H](Cc1c[nH]c2ccccc12)C(=O)O
3,12,CC[C@H](C)[C@H](NC(=O)[C@H](Cc1c[nH]cn1)NC(=O)[C@H](CC(=O)O)NC(=O)[C@H](CC(C)C)NC(=O)[C@H](NC(C)=O)C1c2ccccc2CCc2ccccc21)C(=O)N[C@@H](Cc1c[nH]c2ccccc12)C(=O)O
4,12,CC[C@H](C)[C@H](NC(=O)[C@H](CCC(N)=O)NC(=O)[C@H](CC(=O)O)NC(=O)[C@H](CC(C)C)NC(=O)[C@H](NC(C)=O)C1c2ccccc2CCc2ccccc21)C(=O)N[C@@H](Cc1c[nH]c2ccccc12)C(=O)O
5,0,CC[C@H](C)[C@H](NC(=O)[C@H](CC(=O)O)NC(=O)[C@H](CC(=O)O)NC(=O)[C@H](CC(C)C)NC(=O)[C@H](NC(C)=O)C1c2ccccc2CCc2ccccc21)C(=O)N[C@@H](Cc1c[nH]c2ccccc12)C(=O)O
6,0,CC[C@H](C)[C@H](NC(=O)[C@H](Cc1c[nH]c2ccccc12)NC(=O)[C@H](CC(=O)O)NC(=O)[C@H](CC(C)C)NC(=O)[C@H](NC(C)=O)C1c2ccccc2CCc2ccccc21)C(=O)N[C@@H](Cc1c[nH]c2ccccc12)C(=O)O
7,0,CC[C@H](C)[C@H](NC(=O)[C@H](CCCN=C(N)N)NC(=O)[C@H](CC(=O)O)NC(=O)[C@H](CC(C)C)NC(=O)[C@H](NC(C)=O)C1c2ccccc2CCc2ccccc21)C(=O)N[C@@H](Cc1c[nH]c2ccccc12)C(=O)O
8,0,CC[C@H](C)[C@H](NC(=O)[C@H](CCC(=O)O)NC(=O)[C@H](CC(=O)O)NC(=O)[C@H](CC(C)C)NC(=O)[C@H](NC(C)=O)C1c2ccccc2CCc2ccccc21)C(=O)N[C@@H](Cc1c[nH]c2ccccc12)C(=O)O
9,0,CC[C@H](C)[C@H](NC(=O)[C@H](CO)NC(=O)[C@H](CC(=O)O)NC(=O)[C@H](CC(C)C)NC(=O)[C@H](NC(C)=O)C1c2ccccc2CCc2ccccc21)C(=O)N[C@@H](Cc1c[nH]c2ccccc12)C(=O)O
10,12,CC[C@H](C)[C@H](NC(=O)[C@@H](NC(=O)[C@H](CC(=O)O)NC(=O)[C@H](CC(C)C)NC(=O)[C@H](NC(C)=O)C1c2ccccc2CCc2ccccc21)[C@H](C)O)C(=O)N[C@@H](Cc1c[nH]c2ccccc12)C(=O)O
11,0,CC[C@H](C)[C@H](NC(=O)[C@H](CCCCN)NC(=O)[C@H](CC(=O)O)NC(=O)[C@H](CC(C)C)NC(=O)[C@H](NC(C)=O)C1c2ccccc2CCc2ccccc21)C(=O)N[C@@H](Cc1c[nH]c2ccccc12)C(=O)O
12,9,CC[C@H](C)[C@H](NC(=O)[C@H](Cc1ccc(O)cc1)NC(=O)[C@H](CC(=O)O)NC(=O)[C@H](CC(C)C)NC(=O)[C@H](NC(C)=O)C1c2ccccc2CCc2ccccc21)C(=O)N[C@@H](Cc1c[nH]c2ccccc12)C(=O)O

row,SMILES,inhibition [%]
1,CC[C@H](C)[C@H](NC(=O)[C@H](CC(=O)O)NC(=O)[C@H](CC(C)C)NC(=O)[C@H](NC(C)=O)C1c2ccccc2CCc2ccccc21)C(=O)N[C@H](C(=O)N[C@@H](Cc1c[nH]c2ccccc12)C(=O)O)[C@@H](C)CC (Ac-[dGly(5-dibenzosuberyl)]LDIIW-OH),62

# Biological target: T2, Endothelin-1 receptor (Sus scrofa, UniProt Q29010)
# T2 sequence (Q29010 whole entry): T1 sequence (whole entry)
# Assay: Antagonist activity against ET-A from porcine heart membranes
# Type: functional, tissue-based
# Settings: not given
row,SMILES,IC50 [nM]
1,CC[C@H](C)[C@H](NC(=O)[C@@H](NC(=O)[C@H](CC(=O)O)NC(=O)[C@H](CC(N)=O)NC(=O)[C@H](NC(C)=O)C1c2ccccc2CCc2ccccc21)C(C)C)C(=O)N[C@@H](Cc1c[nH]c2ccccc12)C(=O)O,4
2,CC[C@H](C)[C@H](NC(=O)[C@H](CC(=O)O)NC(=O)[C@@H]1CCCN1C(=O)[C@H](NC(C)=O)C1c2ccccc2CCc2ccccc21)C(=O)N[C@H](C(=O)N[C@@H](Cc1c[nH]c2ccccc12)C(=O)O)[C@@H](C)CC,6
3,CC[C@H](C)[C@H](NC(=O)[C@H](CC(=O)O)NC(=O)[C@H](CCCN=C(N)N)NC(=O)[C@H](NC(C)=O)C1c2ccccc2CCc2ccccc21)C(=O)N[C@H](C(=O)N[C@@H](Cc1c[nH]c2ccccc12)C(=O)O)[C@@H](C)CC (Ac-[dGly(5-dibenzosuberyl)]RDIIW-OH),3
4,CC[C@H](C)[C@H](NC(=O)[C@@H](NC(=O)[C@H](CC(=O)O)NC(=O)[C@H](CCC(N)=O)NC(=O)[C@H](NC(C)=O)C1c2ccccc2CCc2ccccc21)C(C)C)C(=O)N[C@@H](Cc1c[nH]c2ccccc12)C(=O)O,1.7
5,CC[C@H](C)[C@H](NC(=O)[C@H](CC(=O)O)NC(=O)[C@H](Cc1c[nH]cn1)NC(=O)[C@H](NC(C)=O)C1c2ccccc2CCc2ccccc21)C(=O)N[C@H](C(=O)N[C@@H](Cc1c[nH]c2ccccc12)C(=O)O)[C@@H](C)CC,50
6,CC[C@H](C)[C@H](NC(=O)[C@H](CC(=O)O)NC(=O)[C@H](Cc1c[nH]c2ccccc12)NC(=O)[C@H](NC(C)=O)C1c2ccccc2CCc2ccccc21)C(=O)N[C@H](C(=O)N[C@@H](Cc1c[nH]c2ccccc12)C(=O)O)[C@@H](C)CC,11
7,CC[C@H](C)[C@H](NC(=O)[C@H](CC(=O)O)NC(=O)[C@H](Cc1ccccc1)NC(=O)[C@H](NC(C)=O)C1c2ccccc2CCc2ccccc21)C(=O)N[C@H](C(=O)N[C@@H](Cc1c[nH]c2ccccc12)C(=O)O)[C@@H](C)CC,24
8,CC[C@H](C)[C@H](NC(=O)[C@H](CC(=O)O)NC(=O)[C@H](Cc1ccc(O)cc1)NC(=O)[C@H](NC(C)=O)C1c2ccccc2CCc2ccccc21)C(=O)N[C@H](C(=O)N[C@@H](Cc1c[nH]c2ccccc12)C(=O)O)[C@@H](C)CC,11
9,CC[C@H](C)[C@H](NC(=O)[C@@H](NC(=O)[C@H](CC(=O)O)NC(=O)[C@H](CCC(N)=O)NC(=O)[C@H](NC(C)=O)C1c2ccccc2CCc2ccccc21)C(C)(C)C)C(=O)N[C@@H](Cc1c[nH]c2ccccc12)C(=O)O,5
10,CC[C@H](C)[C@H](NC(=O)[C@@H](NC(=O)[C@H](CC(=O)O)NC(=O)[C@H](CC(C)C)NC(=O)[C@H](NC(C)=O)C1c2ccccc2CCc2ccccc21)C(C)(C)C)C(=O)N[C@@H](Cc1c[nH]c2ccccc12)C(=O)O,5

# Results, then the compound that gave them:
row,IC50 [nM],SMILES
1,3,CC[C@H](C)[C@H](NC(=O)[C@H](CC(=O)O)NC(=O)[C@H](CC(N)=O)NC(=O)[C@H](NC(C)=O)C1c2ccccc2CCc2ccccc21)C(=O)N[C@H](C(=O)N[C@@H](Cc1c[nH]c2ccccc12)C(=O)O)[C@@H](C)CC
2,8,CC[C@H](C)[C@H](NC(=O)[C@H](CC(=O)O)NC(=O)[C@H](CCSC)NC(=O)[C@H](NC(C)=O)C1c2ccccc2CCc2ccccc21)C(=O)N[C@H](C(=O)N[C@@H](Cc1c[nH]c2ccccc12)C(=O)O)[C@@H](C)CC
3,21,CC[C@H](C)[C@H](NC(=O)[C@H](CC(=O)O)NC(=O)[C@@H](NC(=O)[C@H](NC(C)=O)C1c2ccccc2CCc2ccccc21)[C@@H](C)CC)C(=O)N[C@H](C(=O)N[C@@H](Cc1c[nH]c2ccccc12)C(=O)O)[C@@H](C)CC
4,12,CC[C@H](C)[C@H](NC(=O)[C@H](CC(=O)O)NC(=O)[C@@H](NC(=O)[C@H](NC(C)=O)C1c2ccccc2CCc2ccccc21)C(C)C)C(=O)N[C@H](C(=O)N[C@@H](Cc1c[nH]c2ccccc12)C(=O)O)[C@@H](C)CC
5,2,CC[C@H](C)[C@H](NC(=O)[C@H](CC(=O)O)NC(=O)[C@H](CCC(N)=O)NC(=O)[C@H](NC(C)=O)C1c2ccccc2CCc2ccccc21)C(=O)N[C@H](C(=O)N[C@@H](Cc1c[nH]c2ccccc12)C(=O)O)[C@@H](C)CC
6,19,CC[C@H](C)[C@H](NC(=O)[C@H](CC(=O)O)NC(=O)CNC(=O)[C@H](NC(C)=O)C1c2ccccc2CCc2ccccc21)C(=O)N[C@H](C(=O)N[C@@H](Cc1c[nH]c2ccccc12)C(=O)O)[C@@H](C)CC
7,11,CC[C@H](C)[C@H](NC(=O)[C@H](CC(=O)O)NC(=O)[C@H](CCC(=O)O)NC(=O)[C@H](NC(C)=O)C1c2ccccc2CCc2ccccc21)C(=O)N[C@H](C(=O)N[C@@H](Cc1c[nH]c2ccccc12)C(=O)O)[C@@H](C)CC (Ac-[dGly(5-dibenzosuberyl)]EDIIW-OH)
8,11,CC[C@H](C)[C@H](NC(=O)[C@H](CC(=O)O)NC(=O)[C@H](CC(=O)O)NC(=O)[C@H](NC(C)=O)C1c2ccccc2CCc2ccccc21)C(=O)N[C@H](C(=O)N[C@@H](Cc1c[nH]c2ccccc12)C(=O)O)[C@@H](C)CC
9,6,CC[C@H](C)[C@H](NC(=O)[C@H](CC(=O)O)NC(=O)[C@H](C)NC(=O)[C@H](NC(C)=O)C1c2ccccc2CCc2ccccc21)C(=O)N[C@H](C(=O)N[C@@H](Cc1c[nH]c2ccccc12)C(=O)O)[C@@H](C)CC
10,4,CC[C@H](C)[C@H](NC(=O)[C@H](CC(=O)O)NC(=O)[C@@H](NC(=O)[C@H](NC(C)=O)C1c2ccccc2CCc2ccccc21)[C@@H](C)O)C(=O)N[C@H](C(=O)N[C@@H](Cc1c[nH]c2ccccc12)C(=O)O)[C@@H](C)CC
11,6,CC[C@H](C)[C@H](NC(=O)[C@H](CC(=O)O)NC(=O)[C@H](CO)NC(=O)[C@H](NC(C)=O)C1c2ccccc2CCc2ccccc21)C(=O)N[C@H](C(=O)N[C@@H](Cc1c[nH]c2ccccc12)C(=O)O)[C@@H](C)CC
12,4,CC[C@H](C)[C@H](NC(=O)[C@H](CC(=O)O)NC(=O)[C@H](CCCCN)NC(=O)[C@H](NC(C)=O)C1c2ccccc2CCc2ccccc21)C(=O)N[C@H](C(=O)N[C@@H](Cc1c[nH]c2ccccc12)C(=O)O)[C@@H](C)CC

# Reference: ChEMBL document CHEMBL1151010, “A case study of combinatorial libraries: Endothelin receptor antagonist hexapeptides” (Bioorg Med Chem Lett, 1995)
